Data taken from patent US4960765A, “Pharmaceutical composition and method for the treatment of colitis ulcerosa and Crohn's disease by oral administration” (priority 1989, dated 1990).
“Also recorded” adds a separate entry of the source. Like-named read-outs stand apart in the source and are kept apart here. Values belong to the compound of their own block, whether it stands above or below them.

Key:
[1] = Ileostomy effluent study (5-ASA / 5-AcASA excretion) in ileostomy patients; type: in vivo, human (ileostomy patients); conditions: for detection in ileostomy secretions: first two hours, 500 mg 5-ASA single oral dose; for excretion rate in ileostomy effluents: following hours up to 8 hours after ingestion
Excerpt: DETERMINATION OF 5-[…] BIOLOGICAL FLUIDS […] ILEOSTOMY PATIENTS Six ileostomy patients colectomized because of colitis ulcerosa with intact small bowel were studied. Their distribution as to sex, age, height, body weight, time since colectomy, small bowel transit time (carmine), and acetylator phenotype (v. Fischer and Klotz, op. cit.) (assessed by sulphadimidine) are shown below in talbe I. ILEOSTOMY PATIENTS […] Ileostomy effluents were collected every hour for eight hours (FIGS. 1+2) urine was collected over an 8 hour period and venous blood was drawn at intervals through the first eight hours (FIGS. 3 and 4).

[2] = Urinary excretion in healthy volunteers; type: in vivo, human (healthy volunteers)
Excerpt: It is the purpose of the clinical studies described below to estimate the bioavailability of a sustained-release type 5-ASA tablet (Pentasea®) of the composition described above in the example by the study of 5-ASA/5-AcASA plasma levels in healthy volunteers as well as the excretion pattern in urine and faces.
(§1) DETERMINATION OF 5-ASA AND 5-AcASA IN BIOLOGICAL FLUIDS
(§2) Procedures for the determination of 5ASA and 5AcASA in ileostomy effluents, feces, urine and blood were based on a newly developed HPLC assay combined with flurescens spectophotometry.
Fourteen healthy persons consented to volunteer. They had no previous or present symptoms or signs of gastrointestinal or other disease apart from uncomplicated appendectomy. There were seven females and seven males. Mean age and age range were for the women 32.4 years and 29-37 years, and for the males 32 years and 24-40 years, respectively. Mean body weight and weight range were for the females 58.6 kg and 53-67 kg, and for the males 70.9 kg and 60-83 kg, respectively. There were eight slow and 6 fast acetylators.
Each subject took two 5-ASA tablets, i.e. 500 mg 5-ASA, three times a day for six days, at 8 a.m., 4 p.m. and at midnight except for the first day, where the two first ingestions took place at 9 a.m. and 5 p.m. The injections are shown by arrows on FIG. 5 and 6. The two tablets at 8 a.m. were taken by the fasting subject. Venous blood samples for determination of 5-ASA and 5-AsASA were drawn at intevals throughout the first day (FIG. 5) and at 7.50 the following five days(i.e. before the 8 a.m. tablets were ingested) (FIG. 6). Twenty-four hour urine and faecal smaples were collected on the 6th day for quantitative determination of 5-ASA and 5-AcASA. EVery day throughout the study peroid of six days a single faecal sample was analgzed qualitatively for the presence of 5-ASA and 5-AcASA.

[3] = cited from earlier work; for amounts observed in the feces: oral 5-ASA, healthy volunteers
[4] = Urinary excretion in ileostomy patients; type: in vivo, human (ileostomy patients)
Experimental: DETERMINATION OF 5-[…] BIOLOGICAL FLUIDS […] Six ileostomy patients colectomized because of colitis ulcerosa with intact small bowel were studied. Their distribution as to sex, age, height, body weight, time since colectomy, small bowel transit time (carmine), and acetylator phenotype (v. Fischer and Klotz, op. cit.) (assessed by sulphadimidine) are shown below in talbe I. […] Ileostomy effluents were collected every hour for eight hours (FIGS. 1+2) urine was collected over an 8 hour period and venous blood was drawn at intervals through the first eight hours (FIGS. 3 and 4).

[5] = oral 5-ASA; rats; cited from earlier work
[6] = cited from earlier work
[7] = Plasma concentrations in healthy volunteers; type: in vivo, human (healthy volunteers)
Experimental: (§3) Each subject took two 5-ASA tablets, i.e. 500 mg 5-ASA, three times a day for six days, at 8 a.m., 4 p.m. and at midnight except for the first day, where the two first ingestions took place at 9 a.m. and 5 p.m. […] The two tablets at 8 a.m. were taken by the fasting subject. Venous blood samples for determination of 5-ASA and 5-AsASA were drawn at intevals throughout the first day (FIG. 5) and at 7.50 the following five days(i.e. before the 8 a.m. tablets were ingested) (FIG. 6). Twenty-four hour urine and faecal smaples were collected on the 6th day for quantitative determination of 5-ASA and 5-AcASA. EVery day throughout the study peroid of six days a single faecal sample was analgzed qualitatively for the presence of 5-ASA and 5-AcASA.

colitis ulcerosa = conditions: cited from earlier work; for therapeutic role on rectal administration: Azad Khan et al.
[8] = Faecal excretion and total recovery in healthy volunteers; type: in vivo, human (healthy volunteers); conditions: for daily qualitative faecal analysis: morning samples from day 2 throughout the study
Experimental: as §3

[9] = tested on: inflamed mucosa in ulcerative colitis; conditions: enema; compared with 5-ASA; cited from earlier work
[10] = Plasma concentrations in ileostomy patients; type: in vivo, human (ileostomy patients); conditions: half an hour after ingestion of 500 mg 5-ASA
Excerpt: as §1, §2
Six ileostomy patients colectomized because of colitis ulcerosa with intact small bowel were studied. Their distribution as to sex, age, height, body weight, time since colectomy, small bowel transit time (carmine), and acetylator phenotype (v. Fischer and Klotz, op. cit.) (assessed by sulphadimidine) are shown below in talbe I.
A single dose of two tablets of sustained-release 5-ASA i.e. total dose 500 mg, were ingested at 8 a.m. by the fasting patient who thereafter took a normal continental breakfast, lunch at noon, and dinner at 6 p.m. Ileostomy effluents were collected every hour for eight hours (FIGS. 1+2) urine was collected over an 8 hour period and venous blood was drawn at intervals through the first eight hours (FIGS. 3 and 4).

Crohn's disease = conditions: cited from earlier work
[11] = cited from earlier work; remark: listed apart in the source

share of collected portion as 5-ASA still retained in the granules ([1]; 8 hours, of the 58% collected): last third
share of collected portion as free 5-ASA ([1]; 8 hours, of the 58% collected): one third
detection in ileostomy secretions [1]: no 5-ASA or 5-AcASA could be detected
excretion rate in ileostomy effluents ([1]; 500 mg 5-ASA): excreted at constant rates
dose excreted at 48 h ([1]; human, ileostomy effluent, po, 500 mg, one patient, collecting up to 48 hours, read-out: further 5-ASA found on expanded collection): 20%
dose excreted at 8 h ([1]; human, ileostomy effluent, po, 8 hours after ingestion, 500 mg 5-ASA, read-out: ingested total dose collected in the ileostomy bags): 58%
Fa ([1]; human, small bowel, po, 500 mg, composition of the invention, ileostomy patients, read-out: 5-ASA that may be absorbed from the small bowel): ≤ 50%
5-ASA retained in the granules ([1]; one patient, collecting up to 48 hours): more than one third
urinary excretion of free 5-ASA ([2]; 500 mg t.i.d.): could not be recorded
5ASA found in urine ([4]; 500 mg 5-ASA single oral dose): no 5ASA was found except in one case
5-ASA found in urine, one case ([4]; one patient, 500 mg 5-ASA): 1.4 mg
concentration at 144 h ([7]; human, plasma, po, day six, all fourteen subjects, 500 mg t.i.d., read-out: total range of 5-ASA plasma concentrations): 1200 to 2830 ng/mL
variation according to acetylator phenotype ([7]; slow and fast acetylators): did not show a significant variation
faecal content of granules, released and non-released 5-ASA (average total) ([8]; analysed 24 hours after collection of the faeces): 5-10%
95% confidence limits of mean faecal excretion of free 5-ASA and 5-AsASA ([8]; day 6, steady state): 378-650 mg per 24 h
total mean faecal excretion of free 5-ASA and 5-AsASA ([8]; day 6, steady state, sum of 5-ASA and 5-AsASA, mean): 514 mg per 24 h
recovery ([8]; human, urine and faeces, po, day 6, steady state, daily ingested total dose 1500 mg 5-ASA, read-out: mean recovery rate): 83%
daily qualitative faecal analysis [8]: presence
Compound: Nc1ccc(O)c(C(=O)O)c1 [5-ASA, 5-aminosalicylic acid]
absorption from the small bowel ([3]; free 5-ASA, oral, healthy subjects): absorbed from the small bowel in particular the jejunum; also recorded: essentially completely
amounts observed in the feces [3]: no noticeable amounts
absorption from the small bowel [5]: essentially completely
amounts observed in the feces [5]: no noticeable amounts
absorption from the colon ([6]; after SASP): the major part of the released 5-ASA is not absorbed
absorption of 5-ASA from the colon in diarrhoea ([6]; after SASP, van Hees et al.): drastically decreased
serum concentrations ([6]; in vivo, po): very low serum concentrations
therapeutic effect (colitis ulcerosa; Azad Khan et al. and van Hees et al.): also has therapeutic effect
therapeutic role on rectal administration (colitis ulcerosa): therapeutically active moiety; also recorded: exhibits a useful therapeutic activity like SASP

share of collected portion as free 5-AsASA ([1]; 8 hours, of the 58% collected): another third
detection in ileostomy secretions [1]: no 5-ASA or 5-AcASA could be detected
excretion rate in ileostomy effluents ([1]; 500 mg 5-ASA): excreted at constant rates
95% confidence limits of mean urinary 5-AsASA excretion ([2]; day 6, steady state): 587-887 mg per 24 h
mean urinary 5-AsASA excretion during 24 h ([2]; day 6, steady state, 24 h, calculated as 5-ASA, mean): 737 mg
mean 5-AsASA found in urine ([4]; within 8 hours, 500 mg 5-ASA, mean): 60 mg
range of 5-AsASA found in urine ([4]; within 8 hours, 500 mg 5-ASA, range): 42 to 82 mg
detection in plasma and urine ([7]; whole study, 500 mg t.i.d. for six days): only 5AcASA was detected
daily qualitative faecal analysis [8]: presence
plasma amounts of 5AsASA [10]: Trace amounts
Compound: CC(=O)Nc1ccc(O)c(C(=O)O)c1 [5-AcASA, N-acetyl-5-aminosalicylic acid]
amounts observed in the feces [3]: no noticeable amounts
amounts observed in the feces [5]: no noticeable amounts
effect on the inflamed mucosa in ulcerative colitis [9]: resembled 5-ASA in its effect on the inflamed mucosa
serum concentrations ([6]; after oral administration of 4 g of SASP, Fischer and Klotz): very low serum concentrations

Compound: O=C(O)c1cc(/N=N/c2ccc(S(=O)(=O)Nc3ccccn3)cc2)ccc1O [SASP, salicylazosulfapyridine]
state on reaching the colon ([6]; oral SASP): reaches the colon intact
effectiveness in Crohn's disease of colon and rectum (Crohn's disease; disease extends to or limited to colon and rectum): proved effective
effectiveness in Crohn's disease limited to the ileum (Crohn's disease; disease limited to the ileum): not proved to be very effective
patients allergic to sulfa drugs ([11]; excludes SASP treatment): up to 10%
side effects ([11]; in vivo): nausea and vomitting, skin rashes, anemia, arthralgias, headache

Compound: Nc1ccc(S(=O)(=O)Nc2ccccn2)cc1 [SP, sulfapyridine]
absorption from the colon ([6]; after SASP): highly absorbed from the colon
therapeutic role on rectal administration (colitis ulcerosa): only acts as a "carrier"
